Read-outs that look alike come from different tables or passages of the source. Marks after values point to notes of the source that are not given here.
How the values were obtained:
LNCaP xenograft tumor [1] = experiment: μPET/CT imaging of LNCaP xenograft tumor-bearing mice; assay type: in vivo; settings: for Max. LNCaP Tumor Uptake Time p.i.: image derived; for Max. LNCaP Tumor Uptake: image derived calculation (ROI), at time of maximum uptake; for route of clearance: from μPET/CT images
Text: (§1) All animal studies were approved by the Institutional Animal Care and Use Committee of Weill Cornell Medicine and were undertaken in accordance with the guidelines set forth by the USPHS Policy on Humane Care and Use of Laboratory Animals. Animals were housed under standard conditions in approved facilities with 12-h light/dark cycles. Food and water was provided ad libitum throughout the course of the studies. Male inbred athymic nu/nu mice were purchased from The Jackson Laboratory. For inoculation in mice, LNCaP cells were suspended at 4 x 10^7 cells/mL in a 1:1 mixture of PBS:Matrigel (BD Biosciences). Each mouse was injected in the left flank with 0.25 mL of the cell suspension. The mice were imaged when the tumors reached approximately 200–400 mm^3, while biodistributions were conducted when tumors were in the range 100–400 mm^3.
Specific activity was greater than 190 GBq/μmol. The mice were imaged by μPET/CT (Inveon™; Siemens Medical Solutions, Inc.) at 1 h, 2 h, 4 h and 6 h p.i. ([^18F]fluorinated compounds) or 1 h and 3 h p.i. ([^68Ga]Ga-PSMA-HBED-CC). Total acquisition time was thirty minutes, and a CT scan was obtained either immediately before or immediately after the acquisition for both anatomical co-registration and attenuation correction. The data were reconstructed using the commercial Inveon™ software supplied by the vendor. Tumor uptake was estimated by drawing a region of interest (ROI).

PSMA = target: T1, PSMA (Homo sapiens, UniProt Q04609); experiment: competitive binding assay against 99mTc-MIP-1427 on LNCaP cells; settings: non-radioactive ligands, 1 nM 99mTc-MIP-1427, 1 h
T1 construct: host or cells: LNCaP
T1 sequence (Q04609 whole entry): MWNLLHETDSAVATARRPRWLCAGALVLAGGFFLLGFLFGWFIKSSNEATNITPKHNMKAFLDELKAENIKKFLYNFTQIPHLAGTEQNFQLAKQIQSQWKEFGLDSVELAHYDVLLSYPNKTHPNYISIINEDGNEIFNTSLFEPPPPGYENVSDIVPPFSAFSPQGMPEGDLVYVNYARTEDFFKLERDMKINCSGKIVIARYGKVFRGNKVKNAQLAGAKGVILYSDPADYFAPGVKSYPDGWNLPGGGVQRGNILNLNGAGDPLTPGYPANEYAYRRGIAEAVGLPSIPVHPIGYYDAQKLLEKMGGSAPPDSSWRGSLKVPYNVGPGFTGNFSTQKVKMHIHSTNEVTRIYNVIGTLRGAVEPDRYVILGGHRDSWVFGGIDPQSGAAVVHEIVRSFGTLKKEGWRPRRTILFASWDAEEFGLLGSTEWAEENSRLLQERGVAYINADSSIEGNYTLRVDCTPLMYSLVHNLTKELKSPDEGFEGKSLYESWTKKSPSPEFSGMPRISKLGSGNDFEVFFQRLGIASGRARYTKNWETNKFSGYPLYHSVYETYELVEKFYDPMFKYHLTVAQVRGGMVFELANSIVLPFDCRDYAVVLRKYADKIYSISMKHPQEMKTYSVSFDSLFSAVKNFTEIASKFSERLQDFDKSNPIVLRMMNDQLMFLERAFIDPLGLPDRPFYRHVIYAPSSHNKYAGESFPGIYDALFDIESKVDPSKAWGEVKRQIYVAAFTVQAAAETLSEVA
Description: The human prostate cancer cell line, LNCaP, was obtained from the American Type Culture Collection. Cell culture supplies were from Invitrogen unless otherwise noted. LNCaP cells were maintained in RPMI-1640 medium supplemented with 10 % fetal bovine serum (Hyclone), 4 mM L-glutamine, 1 mM sodium pyruvate, 10 mM N-2-hydroxyethylpiperazine-N-2-ethanesulfonic acid (HEPES), 2.5 mg/mL D-glucose, and 50 μg/mL gentamicin in a humidified incubator at 37 °C/5 % CO2. Cells were removed from flasks for passage or for transfer to 12-well assay plates by incubating them with 0.25 % trypsin/ethylenediaminetetraacetic acid (EDTA).
The 50 % inhibition concentrations (IC50 ) values of the non-radioactive fluorine-containing ligands were determined by screening in a multi-concentration competitive binding assay against ^99mTc- ((7S,12S,16S)-1-(1-(carboxymethyl)-1H-imidazol-2-yl)-2-((1-(carboxymethyl)-1H-imidazol-2-yl)methyl)-9,14-dioxo-2,8,13,15-tetraazaoctadecane-7,12,16,18-tetracarboxylic acid technetium tricarbonyl complex; ^99mTc-MIP-1427) for binding to PSMA on LNCaP cells, according to methods previously described. The LNCaP cells were plated 48 hours prior to the experiment to achieve a density of approximately 5 x 10^5 cells/well (in triplicate) in RPMI-1640 medium supplemented with 0.25 % bovine serum albumin prior to performing the assay. LNCaP cells were incubated for 1 hour with 1 nM ^99mTc-MIP-1427 in serum-free RPMI-1640 medium in the presence of 1–10,000 nM test compounds. Radioactive incubation media was then removed by pipette and the cells were washed twice using 1 mL of ice-cold HEPES buffer. Cells were harvested from the plates and transferred to tubes for radioactive counting using a Packard Cobra II gamma counter. IC50 values were determined by non-linear regression using GraphPad Prism software.

LNCaP xenograft tumor [2] = settings: cited from earlier work
LNCaP xenograft tumor [3] = experiment: ex vivo biodistribution in LNCaP xenograft tumor-bearing mice; settings: for tumor uptake / Max. LNCaP Tumor Uptake: n = 5; for tumor uptake relative to [68Ga]Ga-PSMA-HBED-CC: at the time of maximum tumor uptake; for Max. LNCaP Tumor Uptake Time p.i. / Max. LNCaP Tumor Uptake: biodistribution
Text: as §1
LNCaP xenograft tumor-bearing mice (n = 5 per time point) were injected via the tail vein with a bolus injection of 370 kBq (10 μCi) of either [^18F]RPS-040 or [^18F]RPS-041. The specific activity of the compounds was 341 GBq/μmol and 391 GBq/μmol, respectively. The mice were euthanized by asphyxiation under isofluorane at 1 h, 2 h and 4 h p.i. An additional set of mice (n = 5) was co-administered [^18F]RPS-040 (370 kBq; 10 μCi) and 2-PMPA (approx. 250 μg; 10 mg/kg) and sacrificed at 1 h p.i. to determine the uptake specificity. A full biodistribution study was conducted on all mice, and tissues were excised, weighed and counted in an automated γ-counter. Tissue time-activity values were expressed as percentage injected dose per gram of tissue (%ID/g). Statistical comparisons were performed using the standard Student’s t test for a 95 % confidence interval.

[4] = 1 h p.i., co-administered with 2-PMPA

Which “Max. LNCaP Tumor Uptake Time p.i.” value (LNCaP xenograft tumor [1]) does the source give for `O=C(O)CC[C@H](NC(=O)N[C@@H](CCCCNC(=O)Nc1cccc(OCc2cn(CCF)nn2)c1)C(=O)O)C(=O)O` [RPS-043] here?
The value was 2 h.

What about the “Max. LNCaP Tumor Uptake” value (LNCaP xenograft tumor [1]) of the same compound?
The value was 9.04 ± 1.88^c %ID/g.

What about the IC50 (PSMA) of the same compound?
Its IC50 is 36.5 nM.

Which results are given for `O=C(O)CC[C@H](NC(=O)N[C@@H](CCCCNC(=O)Nc1ccccc1-c1cn(CCF)nn1)C(=O)O)C(=O)O` [RPS-042]?
route of clearance (LNCaP xenograft tumor [1]): clearance via the hepatobiliary pathway in addition to renal excretion; Max. LNCaP Tumor Uptake Time p.i. (LNCaP xenograft tumor [1]): 2 h; Max. LNCaP Tumor Uptake (LNCaP xenograft tumor [1]): 10.06 ± 1.33^c %ID/g; IC50 (PSMA): 10.2 nM

For `O=C(O)CC[C@H](NC(=O)N[C@@H](CCCCNC(=O)Nc1ccc(I)cc1)C(=O)O)C(=O)O` [MIP-1095], which “Max. LNCaP Tumor Uptake” value (LNCaP xenograft tumor [2]) is on record?
Its value is 34.3 ± 12.7^a %ID/g.

And the “Max. LNCaP Tumor Uptake Time p.i.” value (LNCaP xenograft tumor [2])?
Its value is 4 h.

What about the IC50 (PSMA) of the same compound?
Its IC50 is 0.3 nM.

For `O=C(O)CC[C@H](NC(=O)N[C@@H](CCCCNC(=O)Nc1ccc(OCc2cn(CCF)nn2)cc1)C(=O)O)C(=O)O` [RPS-038], which “Max. LNCaP Tumor Uptake Time p.i.” value (LNCaP xenograft tumor [1]) is on record?
Its value is 2 h.

And the “Max. LNCaP Tumor Uptake” value (LNCaP xenograft tumor [1])?
The value was 8.87 ± 0.64^c %ID/g.

And the IC50 (PSMA)?
Its IC50 is 21.3 nM.

For `O=C(O)CC[C@H](NC(=O)N[C@@H](CCCCNC(=O)Nc1cccc(-c2cn(CCF)nn2)c1)C(=O)O)C(=O)O` [RPS-040], which “Max. LNCaP Tumor Uptake” value (LNCaP xenograft tumor [1]) is on record?
The value was 14.30 %ID/g.

And the tumor-to-blood ratio (LNCaP xenograft tumor [3]; 1 h p.i.)?
The tumor-to-blood ratio was 28.8 ± 8.06.

What about the “tumor-to-blood ratio relative to [68Ga]Ga-PSMA-HBED-CC” value (LNCaP xenograft tumor [3]; 1 h p.i.) of the same compound?
Its value is “three-fold greater”.

And the “tumor-to-kidney ratio relative to [68Ga]Ga-PSMA-HBED-CC” value (LNCaP xenograft tumor [3]; 1 h p.i.)?
Its value is “ten”.

What about the kidneys uptake (LNCaP xenograft tumor [3]; [4]) of the same compound?
The kidneys uptake was 5.95 ± 1.65 %ID/g.

What about the spleen uptake (LNCaP xenograft tumor [3]; [4]) of the same compound?
Its spleen uptake is 0.32 ± 0.05 %ID/g.

And the tumor uptake (LNCaP xenograft tumor [3]; 1 h p.i., co-administered with 2-PMPA (10 mg/kg))?
Its tumor uptake is 1.75 ± 0.15 %ID/g.

What about the kidneys uptake (LNCaP xenograft tumor [3]; 1 h p.i., unblocked) of the same compound?
Its kidneys uptake is 74.24 ± 10.71 %ID/g.

And the spleen uptake (LNCaP xenograft tumor [3]; 1 h p.i., unblocked)?
Its spleen uptake is 4.97 ± 1.55 %ID/g.

What about the tumor uptake (LNCaP xenograft tumor [3]; 1 h p.i., unblocked) of the same compound?
Its tumor uptake is 12.69 ± 1.56 %ID/g.

What about the “uptake in the kidneys” value (LNCaP xenograft tumor [3]; 2 h p.i.) of the same compound?
Its value is 60.94 ± 8.06 %ID/g.

And the “uptake in the liver” value (LNCaP xenograft tumor [3]; 2 h p.i.)?
The value was 4.72 ± 0.93 %ID/g.

What about the “uptake in the spleen” value (LNCaP xenograft tumor [3]; 2 h p.i.) of the same compound?
Its value is 3.23 ± 1.26 %ID/g.

And the tumor-to-blood ratio (LNCaP xenograft tumor [3]; 4 h p.i.)?
Its tumor-to-blood ratio is 92.93 ± 75.67.

And the “tumor uptake relative to [68Ga]Ga-PSMA-HBED-CC” value (LNCaP xenograft tumor [3])?
Its value is “more than two-fold greater”.

What about the “Max. LNCaP Tumor Uptake Time p.i.” value (LNCaP xenograft tumor [3]) of the same compound?
The value was 2 h.

What about the “Max. LNCaP Tumor Uptake” value (LNCaP xenograft tumor [3]; 2 h p.i.) of the same compound?
The value was 14.30 ± 2.49 %ID/g.

And the “Max. LNCaP Tumor Uptake” value (LNCaP xenograft tumor [3]; 2 h p.i., listed as [^18F]RPS-040)?
The value was greater than 10 %ID/g.

And the IC50 (PSMA)?
Its IC50 is 7 nM.

Which route of clearance (LNCaP xenograft tumor [1]) does the source give for `O=C(O)CC[C@H](NC(=O)N[C@@H](CCCCNC(=O)Nc1ccccc1OCc1cn(CCF)nn1)C(=O)O)C(=O)O` [RPS-039] here?
The route of clearance was “clearance via the hepatobiliary pathway in addition to renal excretion”.

And the “Max. LNCaP Tumor Uptake Time p.i.” value (LNCaP xenograft tumor [1])?
The value was 2 h.

And the “Max. LNCaP Tumor Uptake” value (LNCaP xenograft tumor [1])?
Its value is 5.89 ± 0.27^c %ID/g.

And the IC50 (PSMA)?
The IC50 was 14 nM.

Which results are given for `O=C(O)CCC(NC(=O)NC(CCCCNC(=O)c1ccc([18F])nc1)C(=O)O)C(=O)O` (centres unmarked) [DCFPyL, 2-(3-{1-carboxy-5-[(6-[18F]fluoro-pyridine-3-carbonyl)-amino]-pentyl}-ureido)-pentanedioic acid, reference compound]?
Max. LNCaP Tumor Uptake Time p.i. (LNCaP xenograft tumor [1]): 1 h; Max. LNCaP Tumor Uptake (LNCaP xenograft tumor [1]): 5.71 ± 0.61^c %ID/g; maximum standardized uptake value (SUVmax) (LNCaP xenograft tumor [2]; LNCaP tumor xenografts, 1 h p.i.): 1.1 ± 0.1

For `O=C(O)CC[C@H](NC(=O)N[C@@H](CCCCNC(=O)Nc1ccc(-c2cn(CCF)nn2)cc1)C(=O)O)C(=O)O` [RPS-041], which “Max. LNCaP Tumor Uptake” value (LNCaP xenograft tumor [1]) is on record?
Its value is 12.51 %ID/g.

And the tumor-to-blood ratio (LNCaP xenograft tumor [3]; 1 h p.i.)?
Its tumor-to-blood ratio is 20.78 ± 7.87.

And the “tumor-to-blood ratio relative to [68Ga]Ga-PSMA-HBED-CC” value (LNCaP xenograft tumor [3]; 1 h p.i.)?
The value was “more than two-fold”.

What about the “tumor-to-kidney ratio relative to [68Ga]Ga-PSMA-HBED-CC” value (LNCaP xenograft tumor [3]; 1 h p.i.) of the same compound?
The value was “twelve-fold greater”.

And the “contrast (tumor-to-background) relative to [18F]RPS-040” value (LNCaP xenograft tumor [3]; 2 h p.i.)?
The value was “two-fold greater”.

And the “uptake in the kidneys” value (LNCaP xenograft tumor [3]; 2 h p.i.)?
The value was 23.93 ± 5.45 %ID/g.

And the “uptake in the liver” value (LNCaP xenograft tumor [3]; 2 h p.i.)?
The value was 2.51 ± 0.21 %ID/g.

And the “uptake in the spleen” value (LNCaP xenograft tumor [3]; 2 h p.i.)?
The value was 1.13 ± 0.47 %ID/g.

What about the tumor-to-blood ratio (LNCaP xenograft tumor [3]; 4 h p.i.) of the same compound?
The tumor-to-blood ratio was 118.4 ± 69.4.

What about the “tumor uptake relative to [68Ga]Ga-PSMA-HBED-CC” value (LNCaP xenograft tumor [3]) of the same compound?
The value was “nearly two-fold greater”.

What about the “Max. LNCaP Tumor Uptake Time p.i.” value (LNCaP xenograft tumor [3]) of the same compound?
The value was 2 h.

What about the “Max. LNCaP Tumor Uptake” value (LNCaP xenograft tumor [3]; 2 h p.i.) of the same compound?
Its value is 10.86 ± 1.03 %ID/g.

And the “Max. LNCaP Tumor Uptake” value (LNCaP xenograft tumor [3]; 2 h p.i., listed as [^18F]RPS-041)?
Its value is greater than 10 %ID/g.

What about the IC50 (PSMA) of the same compound?
The IC50 was 3.2 nM.

— publication PMC5323493, “Synthesis and pre-clinical evaluation of a new class of high-affinity ^18F-labeled PSMA ligands for detection of prostate cancer by PET imaging” (European Journal of Nuclear Medicine and Molecular Imaging, 2016)
